Test results taken from patent US20170029388A1, “Treatment of Neurodegenerative Diseases with Asparagine Endopeptidase (AEP) Inhibitors and Compositions Related Thereto” (INTERCONTINENTAL GREAT BRANDS LLC, priority 2014, published 2017).
“Also recorded” adds a separate entry of the source.

Assays:
[1] = system: C57BL/6J mice; assay: Acute and chronic toxicity in C57BL/6J mice; conditions: 100 mg/kg
[2] = system: Caspase-3; assay: OGD in primary neurons, Caspase activity; format: cell-based; conditions: 0.1 μM or 1.0 μM compound
Description: (§1) A. AEP activity, measured in primary neuronal cultures with 5 μM Cbz-Ala-Ala-Asn-AMC (x-axis denotes neurons were treated with 0.1 μM or 1.0 μM specified compound). B. Caspase activity, measured in primary neuronal cultures with 5 μM Ac-Asp-Glu-Val-Asp-AMC. C. Cathepsin activity, measured in primary neuronal cultures with 5 μM D-Val-Leu-Lys-AMC. D. Inhibition of APP cleavage. Lysates of primary cortical neurons pre-incubated with compounds for 30 min, underwent OGD for 4 hrs, were reperfused for 18 hrs (normoxia neurons remained at normoxic conditions). E. APP can be cleaved in a dose-dependent manner. Lysates of primary cortical neurons pre-incubated with compounds for 30 min, underwent OGD for 4 hrs, were reperfused for 18 hrs (normoxia neurons remained at normoxic conditions).
(§2) Depriving cells of oxygen and glucose is a cellular model that is employed to trigger acidosis in cultured cells. The efficacy of the compounds in a cellular model of oxygen-glucose deprivation (OGD) was determined in an effort to mimic the effects of stroke in primary cultured neurons. As a result of depriving neurons of oxygen and glucose-containing medium, AEP activity was doubled (FIG. 7A, ‘DMSO-Norm’ compared to ‘DMSO-OGD’), while Caspase-3 and Cathepsin activities remained relatively unchanged. […]

[3] = system: AEP; assay: Oxygen-glucose deprivation (OGD) in primary neurons, AEP activity; format: cell-based; conditions: 0.1 μM or 1.0 μM compound
Description: as §1, §2

[4] = system: 5XFAD mice; assay: Morris water maze in 5XFAD mice; format: in vivo, mouse
Description: A. Thioflavin-S staining of amyloid plaques in the hippocampus (HP), motor cortex (MC), and frontal cortex (FC) of 5XFAD mouse brain sections. Scale bar, 50 μm. B. Quantitative analysis of amyloid plaques. […] F. The percentage of time spent in the target quadrant in the probe trail.
Female wild-type and 5XFAD mice maintained on standard drinking water or compound #11 were trained in a round, water-filled tub (52 inch diameter) in an environment rich with extra maze cues. An invisible escape platform was located in a fixed spatial location 1 cm below the water surface independent of a subjects start position on a particular trial. In this manner, subjects needed to utilize extra maze cues to determine the platform's location. At the beginning of each trial, the mouse was placed in the water maze with their paws touching the wall from 1 of 4 different starting positions (N, S, E, W). Each subject was given 4 trials/day for 5 consecutive days with a 15-min inter-trial interval. […] Upon reaching the invisible escape platform, subjects were left on it for an additional 5 s to allow for survey of the spatial cues in the environment to guide future navigation to the platform. After each trial, subjects were dried and kept in a dry plastic holding cage filled with paper towels to allow the subjects to dry off The temperature of the water was monitored every hour so that mice were tested in water that was between 22 and 25° C. Following the 5 days of task acquisition, a probe trial was presented during which time the platform was removed and the percentage of time spent in the quadrant which previously contained the escape platform during task acquisition was measured over 60 s. All trials were analysed for latency, swim path length, and swim speed by means of MazeScan (Clever Sys, Inc.).

[5] = system: Cathepsin; assay: OGD in primary neurons, Cathepsin activity; format: cell-based; conditions: 0.1 μM or 1.0 μM compound
Description: as §1, §2

[6] = target: T1, AEP (Homo sapiens, UniProt Q99538); assay: DTT reversibility assay; format: biochemical; conditions: 5x IC50 of compound, 10 mM DTT or L-cysteine
T1 construct: tested with purified active AEP, IC50 values for the top 8 candidates were found; purchased Sino Biological
T1 sequence (Q99538 18-323 limits assumed): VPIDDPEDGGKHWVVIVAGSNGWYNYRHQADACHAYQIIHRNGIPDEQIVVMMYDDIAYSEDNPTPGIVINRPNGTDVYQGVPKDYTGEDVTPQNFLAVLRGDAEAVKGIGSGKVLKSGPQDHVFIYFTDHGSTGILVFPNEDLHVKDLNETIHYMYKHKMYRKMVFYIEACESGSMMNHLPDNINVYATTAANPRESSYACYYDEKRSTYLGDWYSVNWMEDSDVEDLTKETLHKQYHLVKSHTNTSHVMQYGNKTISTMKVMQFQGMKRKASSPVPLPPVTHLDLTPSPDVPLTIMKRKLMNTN
Description: AEP was reacted with specified inhibitor, after 15 min 10 mM DTT or L-cysteine was added to the reaction and the fluorescent signal was read for an additional 15 min. At the end of the second 15 min incubation, the percentage of product formed in the presence of each compound was determined in comparison to the DMSO control reaction.
Although it is not intended that embodiments of this disclosure be limited by any particular mechanism, to gain additional insight into the mechanism utilized by the inhibitors for abrogation of AEP activity, their reversibility in the presence of free thiols was determined. The addition of a strong reducing agent, such as DTT, or a weaker reducing agent, L-cysteine, to an inhibited reaction can be used to out-compete the inhibitory agent and restore catalytic activity to an enzyme with an active-site thiol residue. Here, a similar approach was used by adding a reducing agent, either DTT or L-cysteine, to a reaction, in which AEP had been incubated with a specified inhibitor, in an attempt to reverse the effects of the inhibitor. […] For compounds BB1 and 38, this increase in enzymatic activity may be due to the reduction of a disulfide linkage between the inhibitor and the enzyme, since these compounds contain thiols. Compound 10 contains a thiocyanate and may undergo nucleophilic attack by the enzyme's active-site thiolate to form a thioimidate enzyme-inhibitor complex. Under acidic conditions, this complex is reducible by either a strong reducing agent, such as DTT, or the weaker L-cysteine.
Simultaneously, 10 mM (final concentration) dithiothreitol (DTT) or L-cysteine was added to each reaction and incubated for an additional 15 min. At the end of the second 15 min incubation time, the fluorescence was measured for each sample. The amount of product formed in the presence of DMSO was used to determine the percentage of AEP activity in the presence of each drug.

Row | SMILES | systemic toxicity [1] | body weight ([1]; oral gavage, 30-day period) | complete blood count (CBC) parameters ([1]; oral gavage, 30-day period) | immunohistochemical staining, drug-treated vs vehicle-treated ([1]; oral gavage, 30-day period) | Caspase-3 activity in OGD-treated neurons [2] | AEP activity in OGD-treated neurons [3] | Morris water maze, distance to platform ([4]; 5 acquisition days, vs vehicle) | swim speed ([4]; mouse, in vivo) | Morris water maze probe test, time in target quadrant ([4]; vs vehicle) | Cathepsin activity in OGD-treated neurons [5] | AEP activity after addition of reducing agent (reversibility) [6]
1 | Nc1ccc(N2CCOCC2)c2nonc12 [Compound 11] | does not exhibit systemic toxicity | no significant change | within the normal range | no major differences | not observed | marked dose-dependent decrease | decreased distance to platform | not altered; also recorded: not affected | spend more time in the target quadrant; also recorded: spent more time in the target quadrant | not observed | –
2 | Cn1c(=O)[nH]c(=O)c2c1nc(S)n2CC(O)COc1ccc(Cl)cc1 (stereo not drawn) [Compound 38] | – | – | – | – | – | – | – | – | – | – | regained a substantial amount of activity
3 | Sc1nnc(Nc2ccccc2)s1 [Compound BB1] | – | – | – | – | – | – | – | – | – | – | regained a substantial amount of activity
